Reference: patent publication US4221787A, “Esteramide prodrugs of anti-inflammatory corticosteroids” (INTERx Research Corporation, priority 1979, dated 1980)

Key:
[1] = tested on: burned rat ear; test: Effect of selected steroid derivatives on ear burn inflammation; assay type: in vivo, Sprague-Dawley rats; settings: 0.03 M steroid in isopropyl myristate, rat ear burned at 51.7° C. for 10 seconds, ears weighed after 16 hours, 5 rats
Procedure: The pressure of the cylinder on the rat ear was reproduced by using only the weight of the top brass cylinder (2.5 lbs) to apply the pressure. The burned rat ear was then immediately treated on both sides with […] of vehicle (isopropyl myristate) or 0.03 M steroid in the vehicle. After 16 hours, both ears of the rat were removed along anatomical guidelines and weighed.
The increase of weight caused by the burn was determined by subtracting the weight of the untreated left ear from the weight of the treated right ear.
The percent inhibition of inflammation was then determined as the weight increase of burned rat ears treated only with vehicle minus the weight increase of burned rat ears treated with vehicle containing the steroid divided by the weight increase of burned rat ears treated only with vehicle times one hundred.

[2] = tested on: thymus glands; test: Effect of selected steroid derivatives on thymus weight (systemic effect); assay type: in vivo, Sprague-Dawley rats; settings: 48 hours after burn and application of 0.03 M steroid in isopropyl myristate; lower weight = more pronounced systemic effect; Control 233.5 ± 11.5
Procedure: A modification of the method of Tonelli et al, Endocrinology, 77, 625 (1965), was used. […] The rats were first anesthetized with phenobarbitol, then the right ear of each rat was burned on both side for 10 seconds between two vertically oriented brass cylinders heated with water at 51.7° C. from a constant temperature bath. The pressure of the cylinder on the rat ear was reproduced by using only the weight of the top brass cylinder (2.5 lbs) to apply the pressure. The burned rat ear was then immediately treated on both sides with […] of vehicle (isopropyl myristate) or 0.03 M steroid in the vehicle. After 16 hours, both ears of the rat were removed along anatomical guidelines and weighed.
Effect of Selected Steroid Derivatives on Thymus Weight
The rats used in the ear burn test described in Example 18 were revived and 48 hours after the burn and application of the steroid, they were sacrificed with carbon dioxide. Then their thymus glands were removed and weighed. The lower the weight of thymus, the more pronounced the systemic effect of the steroid.

[3] = tested on: mouse skin; settings: in vivo
Procedure: Effect of Selected Steroid Derivatives on Skin Thickness A modification of the method of Smith et al, Arch Derrmatol, 112, 1115 (1976), was used. Hairless mice were used instead of rats. The steroids were tested at 0.03 M in propyleneglycol suspension except for hydrocortisone 17-butyrate which was soluble. Each suspension (50 μl) was applied to the backs of 9 mice daily. On the twenty-ninth day of the experiment, the mice were sacrificed with carbon dioxide and the double fold skin thickness was immediately measured using an Ames micrometer accurate to 0.0001 inch at a pressure of 28 lb/cm^2. The measurement was taken after three minutes had elapsed from the time the mouse skin was placed in the micrometer.

| SMILES | % Inhibition (of ear burn inflammation) [1] [%] | Thymus Weight [2] [mg] | % Decrease from Control (double fold skin thickness) [3] [%] |
| --- | --- | --- | --- |
| C[C@]12CCC(=O)C=C1CC[C@@H]1[C@@H]2[C@@H](O)C[C@@]2(C)[C@H]1CC[C@]2(O)C(=O)COC(=O)[C@@H]1CCC(=O)N1 [4-Pregnene-11β,17α-dihydroxy-21-(2'-oxopyrrolidin-5'-yl)carbonyloxy-3,20-dione] | 50.5 |  |  |
| CCCC(=O)O[C@]1(C(=O)CO)CC[C@H]2[C@@H]3CCC4=CC(=O)CC[C@]4(C)[C@H]3[C@@H](O)C[C@@]21C [Hydrocortisone 17-butyrate] | 28.9 | 149.6 ± 11.7 | 39.2 |
| CCCC(=O)O[C@]1(C(=O)COC(=O)CCC(=O)N(CC)CC)CC[C@H]2[C@@H]3CCC4=CC(=O)CC[C@]4(C)[C@H]3[C@@H](O)C[C@@]21C [4-Pregnene-11β-Hydroxy-17α-butyryloxy-21-(N,N-diethylsuccinamyloxy)-3,20-dione] | 20.4 |  |  |
| CC(=O)OCC(=O)[C@@]1(O)CC[C@H]2[C@@H]3CCC4=CC(=O)CC[C@]4(C)[C@H]3[C@@H](O)C[C@@]21C [Hydrocortisone 21-acetate] | 31.0 | 177.2 ± 11.0 | 37.5 |
| C[C@]12CCC(=O)C=C1CC[C@@H]1[C@@H]2[C@@H](O)C[C@@]2(C)[C@H]1CC[C@]2(O)C(=O)CO [Hydrocortisone] | 3.3 | 190.3 ± 29.7 |  |
| CCN(CC)C(=O)CCC(=O)OCC(=O)[C@@]1(O)CC[C@H]2[C@@H]3CCC4=CC(=O)CC[C@]4(C)[C@H]3[C@@H](O)C[C@@]21C [4-Pregnene-11β,17α-dihydroxy-21-(N,N-diethylsuccinamyloxy)-3,20-dione] | 49.2 |  | 26.7 |
| CC1(C)O[C@@H]2C[C@H]3[C@@H]4CCC5=CC(=O)C=C[C@]5(C)[C@@]4(F)[C@@H](O)C[C@]3(C)[C@]2(C(=O)CO)O1 [Triamcinolone acetonide] | 53.8 | 65.3 ± 8.1 | 45.8 |
